The test deals with L1210 leukemia ip in BDF1 mice, survival T/C. Nature of the test: NCI In Vivo Anticancer Drug Screen. Data for tumor model L1210 Leukemia (intraperitoneal) in B6D2F1 (BDF1) mice. Conditions: endpoint: mean survival time, higher = longer survival. An outline of the steps:
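Value reflects the ratio of survival in compound-treated mice to survival in vehicle-treated controls, with both groups carrying the same transplanted tumor.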

The mark [1] stands for this setting: dose: 50.0 mg/kg/injection, schedule: Q01DX009 (ip), vehicle: saline with Tween-80.
Where [2] appears, read: dose: 100.0 mg/kg/injection, schedule: Q01DX009 (ip), vehicle: saline with Tween-80.
Where [3] appears, read: dose: 200.0 mg/kg/injection, schedule: Q01DX009 (ip), vehicle: saline with Tween-80.
The mark [4] stands for this setting: dose: 50.0 mg/kg/injection, schedule: Q01DX009 (ip), vehicle: Klucel (hydroxypropylcellulose) (HPC).
Where [5] appears, read: dose: 100.0 mg/kg/injection, schedule: Q01DX009 (ip), vehicle: Klucel (hydroxypropylcellulose) (HPC).
Setting [6] is: dose: 100.0 mg/kg/injection, schedule: Q04DX003 (ip), vehicle: Klucel (hydroxypropylcellulose) (HPC).
Where [7] appears, read: dose: 200.0 mg/kg/injection, schedule: Q04DX003 (ip), vehicle: Klucel (hydroxypropylcellulose) (HPC).
Where [8] appears, read: dose: 400.0 mg/kg/injection, schedule: Q04DX003 (ip), vehicle: Klucel (hydroxypropylcellulose) (HPC).
[9] abbreviates: dose: 200.0 mg/kg/injection, schedule: Q01DX009 (ip), vehicle: Klucel (hydroxypropylcellulose) (HPC).
The mark [10] stands for this setting: dose: 100.0 mg/kg/injection, schedule: Q04DX002 (ip), vehicle: saline with Tween-80.

The structures appear in SMILES notation. Several values for one entry are separate records, joined by “and”; a condition that tells them apart may be missing. Equal entries are not always repeated. Inconclusive results and toxic doses are left out.

Here are results for 13 compounds from PubChem BioAssay AID248 (DTP/NCI, 2004).

Regarding `CN(C)C(=O)c1cccc(NCc2ccc3nc(N)nc(N)c3c2)c1`, the T/C runs as follows: under setting [1], 93 % of control; under setting [2], 96 % of control and 88 % of control; (dose: 100.0 mg/kg/injection, schedule: Q04DX003 (ip), vehicle: saline with Tween-80) 97 % of control; under setting [3], 96 % of control; (dose: 200.0 mg/kg/injection, schedule: Q04DX003 (ip), vehicle: saline with Tween-80) 92 % of control; (dose: 400.0 mg/kg/injection, schedule: Q04DX003 (ip), vehicle: saline with Tween-80) 92 % of control.

`NCC(=O)c1cccc2ccc[n+]([O-])c12`: the T/C under setting [4] was 97 % of control, the T/C under setting [5] was 97 % of control, the T/C under setting [6] is 95 % of control and the T/C under setting [7] was 98 % of control.

On to `c1ccc(C2NC2c2ccccc2)cc1` (stereo not drawn), for which the T/C (dose: 50.0 mg/kg/injection, schedule: Q01DX001 (ip), vehicle: carboxymethylcellulose (CMC)) was 112 % of control; the T/C (dose: 100.0 mg/kg/injection, schedule: Q01DX001 (ip), vehicle: carboxymethylcellulose (CMC)) is 97 % of control; the T/C under setting [6] is 103 % of control; the T/C (dose: 200.0 mg/kg/injection, schedule: Q01DX001 (ip), vehicle: carboxymethylcellulose (CMC)) was 97 % of control; the T/C under setting [7] is 95 % of control; the T/C under setting [8] is 91 % of control.

For the compound `c1ccc(-c2c3ccccc3c(-c3ccccc3)c3c2ccc2ccccc23)cc1`, the T/C reads like this: under setting [4], 91 % of control; under setting [9], 91 % of control.

As to `CCCCC/C(C)=C1\Oc2c(C)c(C)cc(C)c2C1=O`, the T/C by setting is: under setting [10], 100 % of control; (dose: 200.0 mg/kg/injection, schedule: Q04DX002 (ip), vehicle: saline with Tween-80) 107 % of control; (dose: 400.0 mg/kg/injection, schedule: Q04DX002 (ip), vehicle: saline with Tween-80) 114 % of control.

For the compound `CN=C(NC)c1ccc(NC(=O)/C=C\c2ccc(C(=O)Nc3ccc(C(=NC)NC)cc3)cc2)cc1`, the T/C (dose: 0.23 mg/kg/injection, schedule: Q01DX Z (ip), vehicle: saline) was 90 % of control; the T/C (dose: 0.47 mg/kg/injection, schedule: Q01DX Z (ip), vehicle: saline) is 114 % of control; the T/C (dose: 0.5 mg/kg/injection, schedule: Q01DX006 (iv), vehicle: saline) was 105 % of control; the T/C (dose: 0.5 mg/kg/injection, schedule: Q01DX Z (ip), vehicle: saline) is 104 % of control; the T/C (dose: 0.5 mg/kg/injection, schedule: Q01DX Z (sc), vehicle: saline) was 96 % of control; the T/C (dose: 0.5 mg/kg/injection, schedule: Q02DX004 (im), vehicle: saline) is 98 % of control. Also, the T/C runs as follows: (dose: 0.94 mg/kg/injection, schedule: Q01DX Z (ip), vehicle: saline) 120 % of control; (dose: 1.0 mg/kg/injection, schedule: Q01DX006 (iv), vehicle: saline) 107 % of control; (dose: 1.0 mg/kg/injection, schedule: Q01DX Z (ip), vehicle: saline) 118 % of control; (dose: 1.0 mg/kg/injection, schedule: Q01DX Z (sc), vehicle: saline) 94 % of control; (dose: 1.0 mg/kg/injection, schedule: Q02DX004 (im), vehicle: saline) 105 % of control; (dose: 2.0 mg/kg/injection, schedule: Q01DX006 (iv), vehicle: saline) 100 % of control. Besides, the T/C was 105 % of control (dose: 2.0 mg/kg/injection, schedule: Q01DX Z (sc), vehicle: saline); 96 % of control (dose: 2.0 mg/kg/injection, schedule: Q02DX004 (im), vehicle: saline); 248 % of control (dose: 3.75 mg/kg/injection, schedule: Q01DX Z (ip), vehicle: saline); 105 % of control (dose: 4.0 mg/kg/injection, schedule: Q01DX006 (iv), vehicle: saline); 209 % of control (dose: 4.0 mg/kg/injection, schedule: Q01DX Z (ip), vehicle: saline); 164 % of control (dose: 4.0 mg/kg/injection, schedule: Q01DX Z (sc), vehicle: saline). In addition, the T/C (dose: 4.0 mg/kg/injection, schedule: Q02DX004 (im), vehicle: saline) is 107 % of control; the T/C (dose: 8.0 mg/kg/injection, schedule: Q01DX006 (iv), vehicle: saline) was 116 % of control; the T/C (dose: 8.0 mg/kg/injection, schedule: Q01DX Z (ip), vehicle: saline) was 121 % of control; the T/C (dose: 15.0 mg/kg/injection, schedule: Q01DX Z (ip), vehicle: saline) was 86 % of control; the T/C (dose: 15.0 mg/kg/injection, schedule: Q01DX Z (oral), vehicle: other) was 97 % of control; the T/C (dose: 16.0 mg/kg/injection, schedule: Q01DX004 (im), vehicle: saline) was 123 % of control. The T/C (dose: 16.0 mg/kg/injection, schedule: Q01DX006 (iv), vehicle: saline) is 107 % of control; the T/C (dose: 16.0 mg/kg/injection, schedule: Q01DX Z (ip), vehicle: saline) is 107 % of control; the T/C (dose: 16.0 mg/kg/injection, schedule: Q01DX Z (sc), vehicle: saline) was 120 % of control; the T/C (dose: 16.0 mg/kg/injection, schedule: Q02DX004 (im), vehicle: saline) was 191 % of control; the T/C (dose: 30.0 mg/kg/injection, schedule: Q01DX Z (oral), vehicle: other) was 95 % of control; the T/C (dose: 32.0 mg/kg/injection, schedule: Q01DX004 (im), vehicle: saline) is 161 % of control. Moreover, the T/C was 104 % of control (dose: 60.0 mg/kg/injection, schedule: Q01DX Z (oral), vehicle: other); 93 % of control (dose: 62.5 mg/kg/injection, schedule: Q## X009 (oral), vehicle: saline); 112 % of control (dose: 125.0 mg/kg/injection, schedule: Q## X010 (oral), vehicle: saline); 116 % of control (dose: 128.0 mg/kg/injection, schedule: Q01DX004 (im), vehicle: saline); 111 % of control (dose: 250.0 mg/kg/injection, schedule: Q## X010 (oral), vehicle: saline); 102 % of control (dose: 500.0 mg/kg/injection, schedule: Q## X009 (oral), vehicle: saline).

With `CN(CCc1ccccc1)/N=N/c1[nH]ncc1C(N)=O`, the T/C (dose: 100.0 mg/kg/injection, schedule: Q01DX001 (ip), vehicle: Klucel (hydroxypropylcellulose) (HPC)) was 108 % of control; the T/C under setting [5] was 103 % of control; the T/C under setting [6] is 105 % of control; the T/C (dose: 200.0 mg/kg/injection, schedule: Q01DX001 (ip), vehicle: Klucel (hydroxypropylcellulose) (HPC)) was 105 % of control; the T/C under setting [9] is 106 % of control; the T/C under setting [7] was 97 % of control. Besides, the T/C by setting is: (dose: 400.0 mg/kg/injection, schedule: Q01DX001 (ip), vehicle: Klucel (hydroxypropylcellulose) (HPC)) 113 % of control; under setting [8], 100 % of control; (dose: 600.0 mg/kg/injection, schedule: Q01DX009 (ip), vehicle: Klucel (hydroxypropylcellulose) (HPC)) 105 % of control.

As for `CC(C)CCCC(C)CC1CC(C)CCC1O` (stereo not drawn), the T/C is, setting by setting: under setting [5], 93 % of control; under setting [6], 98 % of control; under setting [9], 92 % of control; under setting [7], 94 % of control; (dose: 400.0 mg/kg/injection, schedule: Q01DX009 (ip), vehicle: Klucel (hydroxypropylcellulose) (HPC)) 101 % of control; under setting [8], 96 % of control.

With `OCC12NC(=S)OC1C(O)C(O)CO2` (stereo not drawn), the T/C is 104 % of control under setting [1], 104 % of control under setting [2] and 104 % of control under setting [3].

Regarding `Clc1ccc(C(c2ccc(Cl)cc2)C(Cl)Cl)cc1`, the T/C is 98 % of control under setting [6], 98 % of control under setting [7] and 98 % of control under setting [8].

Consider `Clc1cc2nsnc2c2ccccc12`, for which the T/C (dose: 200.0 mg/kg/injection, schedule: Q04DX002 (ip), vehicle: gum acacia) was 95 % of control.

As to `O=C1OC2C3c4ccccc4C(c4c3cc(F)c3ccccc43)C2O1` (stereo not drawn), the T/C was 100 % of control under setting [6], 97 % of control under setting [7] and 95 % of control under setting [8].

`CCCC(CN(C)C)C(=O)c1ccccc1` (stereo not drawn): the T/C by setting is: (dose: 25.0 mg/kg/injection, schedule: Q01DX009 (ip), vehicle: saline with Tween-80) 93 % of control; (dose: 25.0 mg/kg/injection, schedule: Q04DX002 (ip), vehicle: saline with Tween-80) 100 % of control; under setting [1], 89 % of control; (dose: 50.0 mg/kg/injection, schedule: Q04DX002 (ip), vehicle: saline with Tween-80) 93 % of control; under setting [2], 96 % of control; under setting [10], 93 % of control.
